The supplement of paper PMC11451515

Legend:
Conditions in all cases: 48 h
[1] = test system: NOMO1; experiment: cell viability relative to DMSO control; higher = less cytotoxic
Method in brief: (§1)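 Viability values are per-plate percentages of DMSO wells, with background from cell-free wells. Library compounds in DMSO were pin-dosed, in an 11-point threefold series from 47 μM to 0.79 nM, onto NOMO1 or SEM (500 cells/well) or P12-Ichikawa (1000 cells/well) leukemia cells in 1536-well plates (5 μl). Those cells had been adapted for at least four passages in each medium, and CellTiter-Glo One luminescence was read after 48 h at 37°C.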

[2] = test system: P12-Ichikawa; experiment: as above
Method in brief: as §1

[3] = test system: SEM cells; experiment: as above
Method in brief: as §1

[4] = test system: NOMO1; experiment: AUC of viability dose-response curve (% viability x log10 dose units); higher = less sensitive
Method in brief: (§2)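 Leukemia cells adapted to each medium (500 or 1000 cells/well, 1536-well plates) were exposed to library compounds in DMSO for 48 h at 37°C at 11 threefold doses, 47 μM to 0.79 nM. Luminescence by CellTiter-Glo One was normalised per plate to DMSO and cell-free wells, then fitted with a four-parameter log-logistic curve on log10 dose. Curves above full viability were scaled and quality-control failures removed before area under the curve was integrated by trapezoidal rule.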

[5] = test system: P12-Ichikawa; experiment: as above
Method in brief: as §2

[6] = test system: SEM cells; experiment: as above
Method in brief: as §2

Cc1cnc(Nc2ccc(N3CCN(C)CC3)cc2)nc1Nc1cccc([S+](=O)([O-])NC(C)(C)C)c1
cell viability [%]
Conditions | [1] | [2] | [3]
HPLM + 10% dialyzed FBS, 0.000781 µM | 122 | 133 | 110
HPLM + 10% dialyzed FBS, 0.00234 µM | 117 | 104 | 110
HPLM + 10% dialyzed FBS, 0.00702 µM | 115 | 109 | 118
HPLM + 10% dialyzed FBS, 0.0211 µM | 104 | 121 | 114
HPLM + 10% dialyzed FBS, 0.0632 µM | 122 | 118 | 116
HPLM + 10% dialyzed FBS, 0.19 µM | 120 | 109 | 94.9
HPLM + 10% dialyzed FBS, 0.569 µM | 95.7 | 103 | 85.1
HPLM + 10% dialyzed FBS, 1.71 µM | 80.2 | 90.8 | 27.2
HPLM + 10% dialyzed FBS, 5.12 µM | 65.8 | 88.7 | 7.39
HPLM + 10% dialyzed FBS, 15.4 µM | 45.5 | 10.6 | 2.61
HPLM + 10% dialyzed FBS, 46.1 µM | 5.81 | 2.36 | 3.12
RPMI 5 mM glucose + 10% FBS, 0.000781 µM | 100 | 112 | 116
RPMI 5 mM glucose + 10% FBS, 0.00234 µM | 108 | 120 | 113
RPMI 5 mM glucose + 10% FBS, 0.00702 µM | 99.1 | 119 | 107
RPMI 5 mM glucose + 10% FBS, 0.0211 µM | 98.6 | 120 | 114
RPMI 5 mM glucose + 10% FBS, 0.0632 µM | 101 | 124 | 104
RPMI 5 mM glucose + 10% FBS, 0.19 µM | 102 | 111 | 90.2
RPMI 5 mM glucose + 10% FBS, 0.569 µM | 102 | 117 | 77.8
RPMI 5 mM glucose + 10% FBS, 1.71 µM | 87.6 | 91.3 | 22.8
RPMI 5 mM glucose + 10% FBS, 5.12 µM | 77.8 | 80.2 | 5.43
RPMI 5 mM glucose + 10% FBS, 15.4 µM | 44.6 | 16.2 | 2.59
RPMI 5 mM glucose + 10% FBS, 46.1 µM | 15.2 | 7.55 | 3.4
RPMI 5 mM glucose + 10% dialyzed FBS, 0.000781 µM | 112 | 108 | 106
RPMI 5 mM glucose + 10% dialyzed FBS, 0.00234 µM | 113 | 115 | 105
RPMI 5 mM glucose + 10% dialyzed FBS, 0.00702 µM | 107 | 114 | 119
RPMI 5 mM glucose + 10% dialyzed FBS, 0.0211 µM | 111 | 113 | 110
RPMI 5 mM glucose + 10% dialyzed FBS, 0.0632 µM | 110 | 106 | 101
RPMI 5 mM glucose + 10% dialyzed FBS, 0.19 µM | 94.2 | 107 | 88.4
RPMI 5 mM glucose + 10% dialyzed FBS, 0.569 µM | 101 | 102 | 97.9
RPMI 5 mM glucose + 10% dialyzed FBS, 1.71 µM | 95.8 | 92.7 | 26.2
RPMI 5 mM glucose + 10% dialyzed FBS, 5.12 µM | 74.6 | 76.6 | 7.58
RPMI 5 mM glucose + 10% dialyzed FBS, 15.4 µM | 56.8 | 48.4 | 2.94
RPMI 5 mM glucose + 10% dialyzed FBS, 46.1 µM | 21.5 | 4.62 | 3.71

AUC of viability dose-response curve
Conditions | [4] | [5] | [6]
HPLM + 10% dialyzed FBS | 375 | 400 | 311
RPMI 5 mM glucose + 10% FBS | 411 | 390 | 303
RPMI 5 mM glucose + 10% dialyzed FBS | 406 | 400 | 324

CCOC(=O)N[C@@H]1CC[C@@H]2[C@@H](C1)C[C@H]1C(=O)O[C@H](C)[C@H]1[C@H]2/C=C/c1ccc(-c2cccc(F)c2)cn1
cell viability [%]
Conditions | [1] | [2] | [3]
HPLM + 10% dialyzed FBS, 0.000781 µM | – | 113 | 86.6
HPLM + 10% dialyzed FBS, 0.00234 µM | – | 114 | 87.5
HPLM + 10% dialyzed FBS, 0.00702 µM | – | 115 | 102
HPLM + 10% dialyzed FBS, 0.0211 µM | – | 114 | 111
HPLM + 10% dialyzed FBS, 0.0632 µM | – | 114 | 105
HPLM + 10% dialyzed FBS, 0.19 µM | – | 117 | 104
HPLM + 10% dialyzed FBS, 0.569 µM | – | 113 | 111
HPLM + 10% dialyzed FBS, 1.71 µM | – | 120 | 99.5
HPLM + 10% dialyzed FBS, 5.12 µM | – | 120 | 112
HPLM + 10% dialyzed FBS, 15.4 µM | – | 115 | 104
HPLM + 10% dialyzed FBS, 46.1 µM | – | 98.5 | 75.7
RPMI 5 mM glucose + 10% FBS, 0.000781 µM | 114 | – | 95.9
RPMI 5 mM glucose + 10% FBS, 0.00234 µM | 115 | – | 81.8
RPMI 5 mM glucose + 10% FBS, 0.00702 µM | 122 | – | 98.5
RPMI 5 mM glucose + 10% FBS, 0.0211 µM | 128 | – | 107
RPMI 5 mM glucose + 10% FBS, 0.0632 µM | 127 | – | 111
RPMI 5 mM glucose + 10% FBS, 0.19 µM | 121 | – | 107
RPMI 5 mM glucose + 10% FBS, 0.569 µM | 120 | – | 106
RPMI 5 mM glucose + 10% FBS, 1.71 µM | 131 | – | 103
RPMI 5 mM glucose + 10% FBS, 5.12 µM | 127 | – | 103
RPMI 5 mM glucose + 10% FBS, 15.4 µM | 142 | – | 100
RPMI 5 mM glucose + 10% FBS, 46.1 µM | 79 | – | 23.3
RPMI 5 mM glucose + 10% dialyzed FBS, 0.000781 µM | 125 | 114 | 108
RPMI 5 mM glucose + 10% dialyzed FBS, 0.00234 µM | 112 | 116 | 87.3
RPMI 5 mM glucose + 10% dialyzed FBS, 0.00702 µM | 122 | 124 | 110
RPMI 5 mM glucose + 10% dialyzed FBS, 0.0211 µM | 109 | 122 | 112
RPMI 5 mM glucose + 10% dialyzed FBS, 0.0632 µM | 115 | 123 | 117
RPMI 5 mM glucose + 10% dialyzed FBS, 0.19 µM | 118 | 120 | 115
RPMI 5 mM glucose + 10% dialyzed FBS, 0.569 µM | 133 | 123 | 108
RPMI 5 mM glucose + 10% dialyzed FBS, 1.71 µM | 129 | 122 | 119
RPMI 5 mM glucose + 10% dialyzed FBS, 5.12 µM | 131 | 120 | 112
RPMI 5 mM glucose + 10% dialyzed FBS, 15.4 µM | 125 | 119 | 112
RPMI 5 mM glucose + 10% dialyzed FBS, 46.1 µM | 76.8 | 68.4 | 37.1

AUC of viability dose-response curve
Conditions | [4] | [5] | [6]
HPLM + 10% dialyzed FBS | 466 | 472 | 473
RPMI 5 mM glucose + 10% FBS | 467 | 464 | 458
RPMI 5 mM glucose + 10% dialyzed FBS | 468 | 466 | 461

O=C(NCC1CCOCC1)c1cnc(Nc2ccc(Cl)cc2Cl)nc1C(F)(F)F
cell viability [%]
Conditions | [1] | [2] | [3]
HPLM + 10% dialyzed FBS, 0.000781 µM | 101 | 102 | 89.6
HPLM + 10% dialyzed FBS, 0.00234 µM | 121 | 111 | 98.1
HPLM + 10% dialyzed FBS, 0.00702 µM | 121 | 115 | 99
HPLM + 10% dialyzed FBS, 0.0211 µM | 114 | 118 | 67.7
HPLM + 10% dialyzed FBS, 0.0632 µM | 126 | 109 | 108
HPLM + 10% dialyzed FBS, 0.19 µM | 117 | 117 | 103
HPLM + 10% dialyzed FBS, 0.569 µM | 122 | 118 | 106
HPLM + 10% dialyzed FBS, 1.71 µM | 114 | 115 | 102
HPLM + 10% dialyzed FBS, 5.12 µM | 131 | 115 | 99.5
HPLM + 10% dialyzed FBS, 15.4 µM | 141 | 121 | 114
HPLM + 10% dialyzed FBS, 46.1 µM | 127 | 124 | 117
RPMI 5 mM glucose + 10% FBS, 0.000781 µM | 96.5 | 100 | 95.9
RPMI 5 mM glucose + 10% FBS, 0.00234 µM | 112 | 127 | 103
RPMI 5 mM glucose + 10% FBS, 0.00702 µM | 116 | 123 | 108
RPMI 5 mM glucose + 10% FBS, 0.0211 µM | 121 | 121 | 61.9
RPMI 5 mM glucose + 10% FBS, 0.0632 µM | 116 | 130 | 99.1
RPMI 5 mM glucose + 10% FBS, 0.19 µM | 117 | 131 | 100
RPMI 5 mM glucose + 10% FBS, 0.569 µM | 117 | 112 | 99.7
RPMI 5 mM glucose + 10% FBS, 1.71 µM | 126 | 131 | 103
RPMI 5 mM glucose + 10% FBS, 5.12 µM | 127 | 123 | 99.1
RPMI 5 mM glucose + 10% FBS, 15.4 µM | 131 | 132 | 105
RPMI 5 mM glucose + 10% FBS, 46.1 µM | 124 | 118 | 98.5
RPMI 5 mM glucose + 10% dialyzed FBS, 0.000781 µM | 109 | 98 | 94.2
RPMI 5 mM glucose + 10% dialyzed FBS, 0.00234 µM | 129 | 115 | 97.8
RPMI 5 mM glucose + 10% dialyzed FBS, 0.00702 µM | 116 | 114 | 108
RPMI 5 mM glucose + 10% dialyzed FBS, 0.0211 µM | 122 | 127 | 67.9
RPMI 5 mM glucose + 10% dialyzed FBS, 0.0632 µM | 131 | 123 | 121
RPMI 5 mM glucose + 10% dialyzed FBS, 0.19 µM | 121 | 132 | 119
RPMI 5 mM glucose + 10% dialyzed FBS, 0.569 µM | 122 | 120 | 113
RPMI 5 mM glucose + 10% dialyzed FBS, 1.71 µM | 116 | 122 | 112
RPMI 5 mM glucose + 10% dialyzed FBS, 5.12 µM | 120 | 122 | 91.7
RPMI 5 mM glucose + 10% dialyzed FBS, 15.4 µM | 134 | 127 | 123
RPMI 5 mM glucose + 10% dialyzed FBS, 46.1 µM | 131 | 123 | 101

AUC of viability dose-response curve
Conditions | [4] | [5] | [6]
HPLM + 10% dialyzed FBS | 439 | 450 | 425
RPMI 5 mM glucose + 10% FBS | 456 | 472 | 461
RPMI 5 mM glucose + 10% dialyzed FBS | 456 | 465 | 448
